Key:
Assay type in all cases: biochemical
c-fms = target: T1, c-fms (Homo sapiens, UniProt P07333); experiment: c-fms protein kinase assay; settings: kinase inhibition, Table 3
T1 construct: The c-fms intracellular domain was expressed from a baculovirus expression system; GST (N); made in house
T1 sequence (P07333 539-972 limits assumed): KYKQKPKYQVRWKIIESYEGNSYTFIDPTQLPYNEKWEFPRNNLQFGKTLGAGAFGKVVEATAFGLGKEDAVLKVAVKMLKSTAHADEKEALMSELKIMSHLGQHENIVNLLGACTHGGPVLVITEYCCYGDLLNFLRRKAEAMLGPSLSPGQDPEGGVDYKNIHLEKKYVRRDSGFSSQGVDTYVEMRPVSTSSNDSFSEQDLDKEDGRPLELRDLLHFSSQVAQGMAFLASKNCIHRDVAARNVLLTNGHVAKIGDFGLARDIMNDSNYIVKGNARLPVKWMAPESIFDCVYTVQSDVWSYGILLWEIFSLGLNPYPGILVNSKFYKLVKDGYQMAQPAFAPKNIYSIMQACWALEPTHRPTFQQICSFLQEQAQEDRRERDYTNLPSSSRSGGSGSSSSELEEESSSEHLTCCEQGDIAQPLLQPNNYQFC
Procedure: c-fms protein kinase assays utilized the peptide substrate, biotin-[…]-NH2 as the phosphoryl group acceptor. The c-fms intracellular domain was expressed from a baculovirus expression system, as an amino-terminal GST fusion protein, and purified to homogeneity using Glutathione agarose from Sigma Chemical Co. Maximum activation of the enzyme was achieved by preactivation at room temperature for 120 min in the presence of 100 μM ATP and 15 mM MgCl2, This enzyme stock was diluted to 150 nM prior to using in the assay. Typically assays were performed in white, opaque, 96-well plates in a 45 ul assay volume including 15 ul 6% DMSO, with or without compounds, 15 ul of the preactivated, diluted enzyme, and 15 ul of a substrate mixture. Reactions contained 50 mM HEPES, pH 7.5, 1.7 μM ATP, 15 mM MgCl2, 3 μM peptide, 2.5 mM DTT, 50 mM NaCl and 0.15 uCi/assay [□□^32P]ATP. The controls were reactions in the presence (negative controls) or absence (positive controls) of 50 mM EDTA. Reactions were allowed to proceed for 90 min at room temperature. The reaction products were quantified using Scintillation Proximity technolgy. The reactions were quenched by the addition of 200 ul of a solution containing 0.3 mg streptavidin SPA beads from Amersham, 50 mM EDTA, 0.1% TX-100, 50 uM ATP, in PBS, pH7.2 (phosphate buffered solution). Plates were sealed and counted in a Packard Topcount scintillation counter. IC50 values were obtained by fitting raw data to the equation y=Vmax*(1−(x/(k+x))).

VEGFR-2 = target: T2, VEGFR-2 (Homo sapiens, UniProt P35968); experiment: VEGFR-2 kinase assay; settings: kinase inhibition, Table 3; read-out: VEGFR2 (IC50)
T2 construct: The kinase domain of the enzyme was purified to homogeneity from a baculovirus expression system; made in house
Procedure: The peptide substrate used in the VEGFR-2 assay was biotin-aminohexyl-[…]-NH2. The kinase domain of the enzyme was purified to homogeneity from a baculovirus expression system. The enzyme was preactivated on ice for 15 min in the presence of 100 μM ATP and 20 mM MgCl2, and stored at −80° C. until needed for assay. The activated enzyme was diluted to 0.4 nM into a 60 μl reaction containing 100 mM HEPES, pH 7.5, 5 μM ATP, 10 mM MgCl2, 5 μM peptide, 0.1 mM DTT, 0.05 mg/ml BSA, and an inhibitor at varying concentrations. The controls were reactions in the presence (negative controls) or absence (positive controls) of 50 mM EDTA. Reactions were incubated for 30 min at room temperature, and then quenched by the addition of EDTA to 60 mM in 210 μl. The quenched samples (190 μl) were transferred to a neutravidin-coated plate (Pierce) and incubated at room temperature for 40 min to allow biotinylated peptide to bind to the neutravidin. The unbound components of the reaction were removed by washing with a plate washer, then 200 μl HRP-PY20 anti-phosphotyrosine antibody conjugate was added to each well. After incubation for 40 min, the plate was washed to remove any unbound anitbody. A HRP substrate, K-blue (Neogen) was added and the reaction was quenched with Red Stop (Neogen) after 20 min. The absorbance of the wells was read at A650 in a plate reader. IC50 values were obtained by fitting raw data to A650=VMAX*(1−[I]/IC50+[I])))+b, where b is background.

CDK2 = CDK2 (Homo sapiens, UniProt P24941); experiment: CDK2 substrate phosphorylation assay; settings: kinase inhibition, Table 3
Procedure: Cyclin dependent protein kinase assays utilized the peptides Biotin-aminohexyl-[…] and Biotin-aminohexyl-[…]-NH2 as phosphoryl group acceptors. CDK2 was expressed utilizing a baculovirus expression system and was partially purified to comprise 20-80% of total protein, with no detectable competing reactions present. Typically, assays were performed by incubating enzyme (0.2-10 nM), with and without inhibitor, one of the two peptide substrates ([…]), [γ-^32P]ATP ([…]), and 10-20 mM Mg^2+ for periods of time generally within the range 10-120 min. Reactions were terminated with 0.2-2 volumes of either 20% acetic acid or 50-100 mM EDTA buffered to pH 7 (substrate consumption <20%). The buffer employed in enzyme assays was either 30 mM HEPES 7.4 containing 0.15 M NaCl and 5% DMSO, the buffer 50 mM MOPS 7.0 containing 0.15 M NaCl and 5% DMSO, or the buffer 100 mM HEPES pH 7.5 containing 0.1 mg/mL BSA and 5% DMSO. Inhibitors were diluted in 100% DMSO prior to addition into the assay. Detection of peptide phosphorylation was accomplished by scintillation counting following either collection of peptide onto phosphocellulose filters (for reactions stopped with acetic acid), collection of peptide in wells of 96 well plates coated with Streptavidin (Pierce) (reactions were stopped with EDTA), or addition of Avidin coated Scintillant impregnated beads (Scintillation Proximity Assays from Amersham; reactions were stopped with EDTA).

T2 sequence (P35968 834-1162 limits assumed, species assumed): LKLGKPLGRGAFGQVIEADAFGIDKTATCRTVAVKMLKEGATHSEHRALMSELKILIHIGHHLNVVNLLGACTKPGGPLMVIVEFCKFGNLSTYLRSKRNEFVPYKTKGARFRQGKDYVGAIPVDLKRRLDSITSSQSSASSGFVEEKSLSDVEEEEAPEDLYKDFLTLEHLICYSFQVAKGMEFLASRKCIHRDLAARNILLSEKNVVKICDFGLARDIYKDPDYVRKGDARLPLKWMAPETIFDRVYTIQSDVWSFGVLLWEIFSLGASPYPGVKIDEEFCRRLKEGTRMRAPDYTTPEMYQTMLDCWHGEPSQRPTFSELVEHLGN

Row | Compound | IC50 (c-fms) | IC50 (VEGFR-2) | IC50 (CDK2)
1 | O=C1Nc2ncc(-c3ccccc3)cc2C1=CNc1ccc2ncccc2c1 [Example 10, 5-Phenyl-3-[(6-quinolinylamino)methylidene]-1,3-dihydro-2H-pyrrolo[2,3-b]pyridin-2-one] | 1 to 10 µM | – | –
2 | NS(=O)(=O)c1ccc(NC=C2C(=O)Nc3ncc(-c4ccccc4)cc32)cc1 [Example 8, 4-{[(2-Oxo-5-phenyl-1,2-dihydro-3H-pyrrolo[2,3-b]pyridin-3-ylidene)methyl]amino}benzenesulfonamide] | – | – | 1 to 10 µM
3 | O=C1Nc2nc(Cl)ccc2C1=CNc1ccc2ncccc2c1 [Example 22, 6-Chloro-3-[(6-quinolinylamino)methylidene]-1,3-dihydro-2H-pyrrolo[2,3-b]pyridin-2-one] | 1 to 10 µM | 1 to 10 µM | –
4 | NS(=O)(=O)c1ccc(NC=C2C(=O)Nc3cnccc32)cc1 [Example 2, 4-{[(2-Oxo-1,2-dihydro-3H-pyrrolo[2,3-c]pyridin-3-ylidene)methyl]amino}benzenesulfonamide] | – | – | 0.01 to 0.1 µM
5 | O=C1Nc2ncc(-c3ccco3)cc2C1=CNc1ccc2ncccc2c1 [Example 13, 5-(2-Furyl)-3-[(6-quinolinylamino)methylidene]-1,3-dihydro-2H-pyrrolo[2,3-b]pyridin-2-one] | 1 to 10 µM | 1 to 10 µM | –
6 | O=C1Nc2ncc(-c3ccccc3)cc2C1=CNc1ccc2cn[nH]c2c1 [Example 9, 3-[(1H-Indazol-6-ylamino)methylidene]-5-phenyl-1H-pyrrolo[2,3-b]pyridin-2-one] | 1 to 10 µM | – | –
7 | NS(=O)(=O)c1ccc(NC=C2C(=O)Nc3ncccc32)cc1 [Example 5, 4-{[(2-Oxo-1,2-dihydro-3H-pyrrolo[2,3-b]pyridin-3-ylidene)methyl]amino}benzenesulfonamide] | – | 1 to 10 µM | 0.1 to 1 µM
8 | O=C1Nc2cccnc2C1=CNc1ccc2cn[nH]c2c1 [Example 3, 3-[(1H-Indazol-6-ylamino)methylidene]-1H-pyrrolo[3,2-b]pyridin-2-one] | – | 1 to 10 µM | –
9 | NS(=O)(=O)c1ccc(NC=C2C(=O)Nc3ncc(-c4ccco4)cc32)cc1 [Example 11, 4-({[5-(2-Furyl)-2-oxo-1,2-dihydro-3H-pyrrolo[2,3-b]pyridin-3-ylidene]methyl}amino)benzenesulfonamide] | 0.1 to 1 µM | 1 to 10 µM | 0.01 to 0.1 µM
10 | O=C1Nc2ncccc2C1=CNc1ccc2ncccc2c1 [Example 7, 3-[(6-Quinolinylamino)methylidene]-1,3-dihydro-2H-pyrrolo[2,3-b]pyridin-2-one] | – | 1 to 10 µM | –
11 | NS(=O)(=O)c1ccc(NC=C2C(=O)Nc3ccncc32)cc1 [Example 1, 4-{[(2-Oxo-1,2-dihydro-3H-pyrrolo[3,2-c]pyridin-3-ylidene)methyl]amino}benzenesulfonamide] | – | 1 to 10 µM | 0.01 to 0.1 µM

Next, values leading:

Row | IC50 (c-fms) | IC50 (VEGFR-2) | IC50 (CDK2) | Compound
12 | 0.1 to 1 µM | 1 to 10 µM | – | O=C1Nc2ncc(-c3ccsc3)cc2C1=CNc1ccc2ncccc2c1 [Example 16, 3-[(6-Quinolinylamino)methylidene]-5-(3-thienyl)-1,3-dihydro-2H-pyrrolo[2,3-b]pyridin-2-one]
13 | 1 to 10 µM | 0.1 to 1 µM | 0.01 to 0.1 µM | CCOC(=O)c1cnc2c(c1)C(=CNc1ccc(S(N)(=O)=O)cc1)C(=O)N2 [Example 23, Ethyl 3-{[4-(aminosulfonyl)anilino]methylidene}-2-oxo-1,2-dihydro-3H-pyrrolo[2,3-b]pyridine-5-carboxylate]
14 | – | 1 to 10 µM | – | O=C1Nc2cccnc2C1=CNc1ccc2ncccc2c1 [Example 4, 3-[(6-Quinolinylamino)methylidene]-1,3-dihydro-2H-pyrrolo[3,2-b]pyridin-2-one]
15 | 0.1 to 1 µM | 0.1 to 1 µM | 0.1 to 1 µM | NS(=O)(=O)c1ccc(NC=C2C(=O)Nc3ncc(-c4ccsc4)cc32)cc1 [Example 14, 4-({[2-Oxo-5-(3-thienyl)-1,2-dihydro-3H-pyrrolo[2,3-b]pyridin-3-ylidene]methyl}amino)benzenesulfonamide]
16 | 1 to 10 µM | 0.1 to 1 µM | 0.01 to 0.1 µM | O=C1Nc2ncc(Br)cc2C1=CNc1ccc2cn[nH]c2c1 [Example 18, 5-Bromo-3-[(1H-indazol-6-ylamino)methylidene]-1,3-dihydro-2H-pyrrolo[2,3-b]pyridin-2-one]
17 | 1 to 10 µM | 0.1 to 1 µM | 0.1 to 1 µM | O=C1Nc2nc(Cl)ccc2C1=CNc1ccc2cn[nH]c2c1 [Example 21, 6-Chloro-3-[(1H-indazol-6-ylamino)methylidene]-1,3-dihydro-2H-pyrrolo[2,3-b]pyridin-2-one]
18 | 1 to 10 µM | 0.1 to 1 µM | – | O=C1Nc2ncccc2C1=CNc1ccc2cn[nH]c2c1 [Example 6, 3-[(1H-Indazol-6-ylamino)methylidene]-1H-pyrrolo[2,3-b]pyridin-2-one]
19 | – | 0.1 to 1 µM | 0.1 to 1 µM | CCOC(=O)c1cnc2c(c1)C(=CNc1ccc3ncccc3c1)C(=O)N2 [Example 25, Ethyl 2-oxo-3-[(6-quinolinylamino)methylidene]-2,3-dihydro-1H-pyrrolo[2,3-b]pyridine-5-carboxylate]
20 | 1 to 10 µM | 0.1 to 1 µM | 1 to 10 µM | O=C1Nc2ncc(-c3ccco3)cc2C1=CNc1ccc2cn[nH]c2c1 [Example 12, 5-(2-Furyl)-3-[(1H-indazol-6-ylamino)methylidene]-1H-pyrrolo[2,3-b]pyridin-2-one]
21 | 1 to 10 µM | 0.1 to 1 µM | 0.01 to 0.1 µM | NS(=O)(=O)c1ccc(NC=C2C(=O)Nc3ncc(Br)cc32)cc1 [Example 17, 4-{[(5-Bromo-2-oxo-1,2-dihydro-3H-pyrrolo[2,3-b]pyridin-3-ylidene)methyl]amino}benzenesulfonamide]
22 | 1 to 10 µM | 0.1 to 1 µM | 0.01 to 0.1 µM | O=C1Nc2ncc(Br)cc2C1=CNc1ccc2ncccc2c1 [Example 19, 5-Bromo-3-[(6-quinolinylamino)methylidene]-1,3-dihydro-2H-pyrrolo[2,3-b]pyridin-2-one]
23 | – | 0.1 to 1 µM | 0.1 to 1 µM | NS(=O)(=O)c1ccc(NC=C2C(=O)Nc3nc(Cl)ccc32)cc1 [Example 20, 4-{[(6-Chloro-2-oxo-1,2-dihydro-3H-pyrrolo[2,3-b]pyridin-3-ylidene)methyl]amino}benzenesulfonamide]

— US6815439B2, “Substituted aza-oxindole derivatives” (SmithKline Beecham Corporation, priority 1999, dated 2004)
